The conditions of data set [1]: for water absorbed: at 80% relative air humidity (RH).
For data set [2] the following is noted: for pH of suspension after 24 hours of testing: 37° C.
The nature of a further data set: physchem. The conditions noted are these: for solubility at 24 h: thermodynamic from solid.
Where [3] appears, read: medium of pH 1.2, 37 °C, pH 1.2, simulated gastric fluid.
The mark [4] stands for this setting: medium of pH 6.8, 37 °C, pH 6.8, aqueous buffer.

In brackets after ≈: the same amount, converted by molar mass. Read-outs that look alike come from different tables or passages of the source.

As a reminder, the solubility is how much of the substance goes into solution per volume. For the molecule `CCOc1ccc(Cc2cc([C@@H]3OC(CO)[C@@H](O)C(O)C3O)ccc2Cl)cc1` (stereo partly drawn) [amorphous dapagliflozine, (2S,3R,4R,5S,6R)-2-[4-chloro-3-(4-ethoxybenzyl)phenyl]-6-(hydroxymethyl)tetrahydro-2H-pyran-3,4,5-triole], the water absorbed result in data set [1] is “around 6%”. Also, in data set [1] (during the first sorption/desorption cycle), the water irreversibly absorbed result is reported as “around 3%”. In addition, the “Desciptive term (solubility)” value is “Slightly soluble” in data set [2] (medium pH 1.2); “Slightly soluble” in data set [2] (medium pH 3.0); “Slightly soluble” in data set [2] (medium pH 4.5); “Slightly soluble” in data set [2] (medium pH 6.8); “Very slightly soluble” in data set [2] (medium pH 7.4); “Slightly soluble” in data set [2] (medium water). In addition, the “pH of suspension after 24 hours of testing” value worked out at 1.2 in data set [2] (medium pH 1.2); 2.9 in data set [2] (medium pH 3.0); 4.5 in data set [2] (medium pH 4.5); 6.7 in data set [2] (medium pH 6.8); 7.2 in data set [2] (medium pH 7.4); 7.4 in data set [2] (medium water). Further, the solubility at 24 h in the data set “physchem” (setting [3]) is 1200 µg/mL (≈ 2930 µM); in the data set “physchem” (medium of pH 3.0, 37 °C, pH 3, aqueous buffer), 1100 µg/mL (≈ 2690 µM); in “physchem” (medium of pH 4.5, 37 °C, pH 4.5, aqueous buffer), 1200 µg/mL (≈ 2930 µM); in “physchem” (setting [4]), 1200 µg/mL (≈ 2930 µM); in “physchem” (medium of pH 7.4, 37 °C, pH 7.4, aqueous buffer) it was 700 µg/mL (≈ 1710 µM); in the data set “physchem” (water, 37 °C), 1200 µg/mL (≈ 2930 µM). Also, the solubility in “physchem” (water) is ~1000 µg/mL (≈ 2450 µM).
As to `CCOc1ccc(Cc2cc([C@@H]3O[C@H](CO)[C@@H](O)[C@H](O)[C@H]3O)ccc2Cl)cc1`, the water absorbed entry in data set [1] was “around 0.8%”. In addition, the “pH of suspension after 24 hours of testing” value in data set [2] (medium pH 1.2) is listed as 1.3; in data set [2] (medium pH 6.8), 6.8; in data set [2] (medium water), 3.2. For the same molecule, the solubility at 24 h in the data set “physchem” (setting [3]) was 1700 µg/mL (≈ 4160 µM); in the data set “physchem” (setting [4]) it was 1700 µg/mL (≈ 4160 µM); in “physchem” (water, 37 °C), 1800 µg/mL (≈ 4400 µM).

Values taken from US20160256433A1, “Formulations Containing Amorphous Dapagliflozin” (SANDOZ AG, priority 2013, published 2016).
